# Tests used:
# pBR322 plasmid DNA = type: binding
# A549 (lung carcinoma) [1] = settings: read-out: IC50 A549; cited from earlier work
# HeLa (cervix carcinoma) = settings: read-out: IC50 HeLa; cited from earlier work
# tubulin = type: cell-based, human
# A549 cells = type: cell-based, human
# [2] = tested on: lung mouse embryonic fibroblasts (LMEFs); type: cell-based; settings: 10 μM, 22 h
# A549 (lung carcinoma) [3] = tested on: A549 (lung carcinoma)
smiles,measurement,setting,value
"N.N.[Cl][Pt][Cl] [cisplatin, reference compound]",electrophoretic mobility of plasmid forms,pBR322 plasmid DNA,electrophoretic shift
same,IC50,A549 (lung carcinoma) [1],6.45 ± 0.47 µM
same,IC50,HeLa (cervix carcinoma),13.6 ± 0.99 µM
"COC(=O)Nc1nc2ccc(C(=O)c3cccs3)cc2[nH]1 [nocodazole, reference compound]",tubulin depolymerization / microtubule disassembly,tubulin,notable microtubule disassembly
"CN(C)c1ccc(-c2nc3ccccc3s2)cc1 [Me2N‐pbtH, 2‐(4‐dimethylaminophenyl)benzothiazole]",cellular internalization (intracellular green fluorescence),A549 cells,successful internalization
same,colocalization with Golgi apparatus marker BODIPY TR C5 ceramide,A549 cells,most of the signal colocalized with the Golgi apparatus marker
same,time to bright green fluorescence (internalization),A549 cells,2 to 5 min
same,accumulation in endosomal/lysosomal compartments (LysoTracker),[2],minor accumulation in the endosomal/lysosomal compartments
same,accumulation in mitochondria (MitoTracker),[2],lack of accumulation in mitochondria
same,cytotoxic effects against A549 cells,A549 (lung carcinoma) [3],did not show cytotoxic effects

# — PMC9293083 (Chemistry (Weinheim an Der Bergstrasse, Germany), 2021)
